In brackets after ≈: the same amount, converted by molar mass.
What was measured:
Assay type in all cases: physicochemical
[1] = Relative stability of the four identified polymorphic forms
Source text: A summary of the relevant characteristics of Form I is found below in Table 10: […]

[2] = Thermodynamic solubility of Form I in solvents and aqueous pH media; conditions: for solubility thermodynamic: thermodynamic from solid
[3] = 1 week stability of Form I under storage conditions
[4] = Hygroscopicity (DVS water uptake at 90% RH)

Stability relative to the other identified forms [1]: most stable | Solid form recovered in thermodynamic solubility test ([2]; 1-Butanol): Form I | solubility thermodynamic ([2]; 1-butanol, organic solvent or mixture): 500 µg/mL (≈ 691 µM) | Solid form recovered in thermodynamic solubility test ([2]; Acetone): Form I (PO) | solubility thermodynamic ([2]; DCM:methanol (90:10 v/v), organic solvent or mixture): > 67000 µg/mL | Solid form recovered in thermodynamic solubility test ([2]; Dichloromethane): Form I (PO) | Solid form recovered in thermodynamic solubility test ([2]; Ethanol): Form I | Solid form recovered in thermodynamic solubility test ([2]; Methanol): Form I | solubility thermodynamic ([2]; N,N′-dimethylacetamide, organic solvent or mixture): > 100000 µg/mL | solubility thermodynamic ([2]; THF, organic solvent or mixture): > 67000 µg/mL | solubility thermodynamic ([2]; acetone, organic solvent or mixture): 4000 µg/mL (≈ 5530 µM) | solubility thermodynamic ([2]; aqueous pH medium, pH 1, simulated gastric fluid): 100 µg/mL (≈ 138 µM) | solubility thermodynamic ([2]; aqueous pH medium, pH 4, aqueous buffer): < 50 µg/mL | solubility thermodynamic ([2]; aqueous pH medium, pH 5, aqueous buffer): < 50 µg/mL | solubility thermodynamic ([2]; aqueous pH medium, pH 6, aqueous buffer): < 50 µg/mL | solubility thermodynamic ([2]; dichloromethane, organic solvent or mixture): 14800 µg/mL (≈ 20400 µM) | solubility thermodynamic ([2]; ethanol, organic solvent or mixture): 800 µg/mL (≈ 1110 µM) | solubility thermodynamic ([2]; methanol, organic solvent or mixture): 1100 µg/mL (≈ 1520 µM) | Solid form recovered in thermodynamic solubility test ([2]; pH 1): Form I | Solid form recovered in thermodynamic solubility test ([2]; pH 4): Amorphous | Solid form recovered in thermodynamic solubility test ([2]; pH 5): Form I | Solid form recovered in thermodynamic solubility test ([2]; pH 6): Form I | 1 Week Stability, solid form ([3]; 40° C./75% RH): Form I | 1 Week Stability, solid form ([3]; 80° C.): Form I | 1 Week Stability, solid form ([3]; Ambient): Form I | Hygroscopicity (water uptake at 90% RH) ([4]; 90% RH): 1.7% | hygroscopicity ([4]; at 90% RH): 1.7 wt. % | Post-DVS XRPD ([4]; solid form by XRPD after DVS): Form I
Compound: O=C1CC[C@H](N2Cc3cc(N4CCN(CC5CCN(c6ccc([C@@H]7c8ccc(O)cc8CC[C@@H]7c7ccccc7)cc6)CC5)CC4)ccc3C2=O)C(=O)N1 [Form I, (S)-3-(5-(4-((1-(4-((1R,2S)-6-hydroxy-2-phenyl-1,2,3,4-tetrahydronaphthalen-1-yl)phenyl)piperidin-4-yl)methyl)piperazin-1-yl)-1-oxoisoindolin-2-yl)piperidine-2,6-dione]

Source: patent US12162859B2, “Crystalline and amorphous forms of a compound for the targeted degradation of estrogen receptor” (Arvinas Operations, Inc., priority 2020, dated 2024)
